The supplement of paper PMC10627819

How the values were obtained:
[1] = system: S. pneumoniae D39V; experiment: fitness (endpoint OD595 vs no drug) (fraction); higher = more growth
Outline: (§1)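 Volumes were 30 µl per well, or 55 µl for S. pneumoniae, in 384-well plates inoculated at OD595 0.01. Media were TSB, LB Lennox or CY at 37 °C, and OD595 was read every 30 min for 14 h with first-reading background subtraction. Fitness is the ratio of optical density at stationary-phase entry to the robust mean of no-drug controls. That ratio is capped at 1.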

[2] = system: B. subtilis 168; experiment: as above
Outline: as §1

C[C@H]1c2cccc(O)c2C(=O)C2=C(O)[C@]3(O)C(=O)C(C(N)=O)=C(O)[C@@H](N(C)C)[C@@H]3[C@@H](O)[C@@H]21 [Doxycycline] + CO/N=C(\C(=O)N[C@@H]1C(=O)N2C(C(=O)[O-])=C(C[N+]3(C)CCCC3)CS[C@H]12)c1csc(N)n1 [Cefepime]
fitness, [1], one replicate
Details | first compound 0.003875 µg/mL | first compound 0.00775 µg/mL | first compound 0.031 µg/mL | first compound 0.062 µg/mL
partner 0.0078 µg/mL | ≥ 1 | ≥ 1 | 0.936 | 0.84
partner 0.0155 µg/mL | ≥ 1 | 0.991 | 0.888 | 0.779
partner 0.031 µg/mL | 0.637 | 0.783 | 0.834 | 0.684

fitness, [1]
Details | partner 0.007 µg/mL | partner 0.0078 µg/mL | partner 0.014 µg/mL | partner 0.0155 µg/mL | partner 0.028 µg/mL | partner 0.031 µg/mL
first compound 0.0155 µg/mL | 0.944 | ≥ 1 | 0.934 | 0.974 | 0.858 | 0.882
first compound 0.031 µg/mL | 0.951 | – | 0.938 | – | 0.88 | –

CC(=O)Oc1ccccc1C(=O)O [Acetylsalicylic acid] + Clc1ccc(COC(Cn2ccnc2)c2ccc(Cl)cc2Cl)c(Cl)c1 [Miconazole]
fitness, [1]
Details | partner 1.073 µg/mL | partner 1.25 µg/mL | partner 2.145 µg/mL | partner 2.5 µg/mL | partner 4.29 µg/mL | partner 5 µg/mL
first compound 250 µg/mL | ≥ 1 | 0.902 | 0.943 | 0.863 | 0.9 | 0.937
first compound 500 µg/mL | ≥ 1 | 0.816 | 0.918 | 0.772 | 0.858 | 0.844
first compound 1000 µg/mL | ≥ 1 | 0.643 | 0.957 | 0.589 | 0.875 | 0.656

CC(=O)Oc1ccccc1C(=O)O [Acetylsalicylic acid] + O=C1CN(/N=C/c2ccc([N+](=O)[O-])o2)C(=O)N1 [Nitrofurantoin]
fitness, [1]
Details | partner 1.285 µg/mL | partner 2 µg/mL | partner 2.57 µg/mL | partner 4 µg/mL | partner 8 µg/mL
first compound 250 µg/mL | 0.979 | 0.9 | 0.973 | 0.91 | 0.813
first compound 500 µg/mL | 0.974 | 0.835 | 0.947 | 0.786 | 0.742
first compound 1000 µg/mL | 0.931 | 0.513 | 0.93 | 0.446 | 0.467

[1], partner 5.14 µg/mL, one replicate
Details | fitness
first compound 250 µg/mL | 0.93
first compound 500 µg/mL | 0.888
first compound 1000 µg/mL | 0.813

CC(=O)Oc1ccccc1C(=O)O [Acetylsalicylic acid] + CN(C)C(=O)C(CCN1CCC(O)(c2ccc(Cl)cc2)CC1)(c1ccccc1)c1ccccc1 [Loperamide]
fitness, [1]
Details | partner 17.14 µg/mL | partner 20 µg/mL | partner 34.28 µg/mL | partner 40 µg/mL | partner 80 µg/mL
first compound 250 µg/mL | 0.987 | 0.989 | 0.945 | 0.982 | ≥ 1
first compound 500 µg/mL | 0.972 | ≥ 1 | 0.981 | ≥ 1 | ≥ 1
first compound 1000 µg/mL | 0.859 | 0.987 | 0.879 | 0.967 | 0.937

[1], partner 68.57 µg/mL, one replicate
Details | fitness
first compound 250 µg/mL | 0.931
first compound 500 µg/mL | 0.927
first compound 1000 µg/mL | ≥ 1

CC(=O)Oc1ccccc1C(=O)O [Acetylsalicylic acid] + O=C(O)[C@H]1/C(=C/CO)O[C@@H]2CC(=O)N21 [Clavulanic acid]
fitness, [1]
Details | first compound 250 µg/mL | first compound 500 µg/mL | first compound 1000 µg/mL
partner 0.5 µg/mL | 0.954 | 0.967 | 0.696
partner 1 µg/mL | 0.902 | 0.902 | 0.696
partner 2 µg/mL | 0.884 | 0.819 | 0.596

CC(=O)Oc1ccccc1C(=O)O [Acetylsalicylic acid] + C[C@H]1COc2c(N3CCN(C)CC3)c(F)cc3c(=O)c(C(=O)O)cn1c23 [Levofloxacin]
fitness, [1]
Details | partner 0.1725 µg/mL | partner 0.2 µg/mL | partner 0.345 µg/mL | partner 0.4 µg/mL | partner 0.69 µg/mL | partner 0.8 µg/mL
first compound 250 µg/mL | 0.992 | 0.92 | 0.954 | 0.868 | 0.671 | 0.673
first compound 500 µg/mL | ≥ 1 | 0.929 | 0.9 | 0.898 | 0.692 | 0.653
first compound 1000 µg/mL | 0.95 | 0.881 | 0.938 | 0.734 | 0.716 | 0.513

CC(=O)Oc1ccccc1C(=O)O [Acetylsalicylic acid] + CO[C@H]1/C=C/O[C@@]2(C)Oc3c(C)c(O)c4c(O)c(c(/C=N/N5CCN(C)CC5)c(O)c4c3C2=O)NC(=O)/C(C)=C\C=C\[C@H](C)[C@H](O)[C@@H](C)[C@@H](O)[C@@H](C)[C@H](OC(C)=O)[C@@H]1C [Rifampicin]
fitness, [1]
Details | first compound 250 µg/mL | first compound 500 µg/mL | first compound 1000 µg/mL
partner 0.025 µg/mL | 0.932 | 0.913 | 0.81
partner 0.05 µg/mL | – | 0.899 | 0.668
partner 0.1 µg/mL | 0.476 | 0.37 | –

[1], partner 0.2 µg/mL, one replicate
Details | fitness
first compound 250 µg/mL | 0
first compound 500 µg/mL | 0
first compound 1000 µg/mL | 0

CN(C)[C@@H]1C(O)=C(C(N)=O)C(=O)[C@@]2(O)C(O)=C3C(=O)c4c(O)ccc(Cl)c4[C@@](C)(O)[C@H]3C[C@@H]12 [Chlortetracycline] + C[C@@H](O)[C@H]1C(=O)N2C(C(=O)O)=C(SCCNC=N)C[C@H]12 [Imipenem]
fitness, [1]
Details | first compound 0.012 µg/mL | first compound 0.024 µg/mL | first compound 0.048 µg/mL | first compound 0.375 µg/mL | first compound 0.75 µg/mL | first compound 1.5 µg/mL
partner 0.005 µg/mL | – | – | – | 0.0486 | 0.0409 | 0.0284
partner 0.0065 µg/mL | 0.894 | 0.799 | 0.686 | – | – | –
partner 0.01 µg/mL | – | – | – | 0.0501 | 0.0583 | 0.0373
partner 0.013 µg/mL | 0.863 | 0.865 | 0.837 | – | – | –
partner 0.02 µg/mL | – | – | – | 0.0339 | 0.065 | 0.065
partner 0.026 µg/mL | 0.724 | 0.761 | 0.724 | – | – | –

CN(C)[C@@H]1C(O)=C(C(N)=O)C(=O)[C@@]2(O)C(O)=C3C(=O)c4c(O)ccc(Cl)c4[C@@](C)(O)[C@H]3C[C@@H]12 [Chlortetracycline] + CO[C@@H]1[C@@H](OC(N)=O)[C@@H](O)[C@H](Oc2ccc3c(O)c(NC(=O)c4ccc(O)c(CC=C(C)C)c4)c(=O)oc3c2C)OC1(C)C [Novobiocin]
fitness, [2]
Details | first compound 0.0475 µg/mL | first compound 0.095 µg/mL | first compound 0.19 µg/mL
partner 0.0125 µg/mL | 0.909 | 0.765 | 0.469
partner 0.025 µg/mL | 0.623 | 0.653 | 0.336
partner 0.05 µg/mL | 0.986 | 0.844 | 0.398

fitness, [2], one replicate
Details | partner 0.1 µg/mL | partner 0.125 µg/mL | partner 0.2 µg/mL | partner 0.25 µg/mL | partner 0.5 µg/mL
first compound 0.0475 µg/mL | 0.948 | 0.928 | 0.934 | 0.966 | 0.648
first compound 0.095 µg/mL | 0.863 | 0.839 | 0.936 | 0.811 | 0.577
first compound 0.19 µg/mL | 0.529 | 0.548 | 0.52 | 0.537 | 0.323

CC(=O)Oc1ccccc1C(=O)O [Acetylsalicylic acid] + CN(C)c1cc(NC(=O)CNC(C)(C)C)c(O)c2c1C[C@H]1C[C@H]3[C@H](N(C)C)C(O)=C(C(N)=O)C(=O)[C@@]3(O)C(O)=C1C2=O [Tigecycline]
fitness, [1]
Details | partner 0.325 µg/mL | partner 0.65 µg/mL | partner 1.3 µg/mL | partner 2.6 µg/mL
first compound 250 µg/mL | 0.934 | 0.968 | 1 | 0.932
first compound 500 µg/mL | 0.904 | 0.985 | 0.949 | 0.95
first compound 1000 µg/mL | 0.797 | 0.763 | 0.803 | 0.718

CC(=O)Oc1ccccc1C(=O)O [Acetylsalicylic acid] + CCC(C)C1C(=O)NC(=C)C(=O)NC(C(=O)NC(CSCC(C(=O)N1)NC(=O)/C(=C/C)/NC(=O)C(C(C)CC)N)C(=O)NC2C(SCC(NC(=O)CNC(=O)C3CCCN3C2=O)C(=O)NC(CCCCN)C(=O)NC4C(SCC(NC(=O)CNC(=O)C(NC(=O)C(NC(=O)C(NC(=O)CNC4=O)C)CC(C)C)CCSC)C(=O)NC(CC(=O)N)C(=O)NC(CCSC)C(=O)NC(CCCCN)C(=O)NC5C(SCC6C(=O)NC(C(=O)NC(CSC(C(C(=O)N6)NC(=O)C(NC5=O)C)C)C(=O)NC(CO)C(=O)NC(C(C)CC)C(=O)NC(CC7=CN=CN7)C(=O)NC(C(C)C)C(=O)NC(=C)C(=O)NC(CCCCN)C(=O)O)CC8=CN=CN8)C)C)C)CC(C)C [Nisin]
fitness, [1], main component drawn
Details | partner 0.4275 µg/mL | partner 0.855 µg/mL | partner 1.6 µg/mL | partner 1.71 µg/mL | partner 3.2 µg/mL | partner 6.4 µg/mL
first compound 250 µg/mL | 0.994 | 0.711 | 0.0198 | 0.0841 | 0.0317 | 0.0271
first compound 500 µg/mL | 0.974 | 0.715 | 0.0324 | 0.114 | 0.0227 | 0.0184
first compound 1000 µg/mL | – | 0.526 | 0.0339 | 0.0989 | 0.0138 | 0.0153

CC(=O)Oc1ccccc1C(=O)O [Acetylsalicylic acid] + CC[C@H]1OC(=O)[C@H](C)[C@@H](O[C@H]2C[C@@](C)(OC)[C@@H](O)[C@H](C)O2)[C@H](C)[C@@H](O[C@@H]2O[C@H](C)C[C@H](N(C)C)[C@H]2O)[C@](C)(OC)C[C@@H](C)C(=O)[C@H](C)[C@@H](O)[C@]1(C)O [Clarithromycin]
fitness, [1], one replicate
Details | first compound 250 µg/mL | first compound 500 µg/mL | first compound 1000 µg/mL
partner 0.007812 µg/mL | 0.824 | 0.781 | 0.281
partner 0.01562 µg/mL | 0.783 | 0.763 | 0.193
partner 0.03125 µg/mL | 0.621 | 0.627 | 0.257

fitness, [1]
Details | partner 0.0625 µg/mL | partner 0.07 µg/mL | partner 0.125 µg/mL | partner 0.14 µg/mL | partner 0.25 µg/mL | partner 0.28 µg/mL
first compound 250 µg/mL | 0.642 | 0.195 | 0.369 | 0.137 | 0.133 | 0.104
first compound 500 µg/mL | 0.586 | 0.228 | 0.359 | 0.167 | 0.147 | 0.108
first compound 1000 µg/mL | 0.405 | 0.155 | 0.148 | 0.139 | 0.0751 | 0.0935

CC(=O)Oc1ccccc1C(=O)O [Acetylsalicylic acid] + CC(C1CCC(C(O1)OC2C(CC(C(C2O)OC3C(C(C(CO3)(C)O)NC)O)N)N)N)NC [Gentamicin]
fitness, [1], main component drawn
Details | partner 2 µg/mL | partner 4 µg/mL | partner 8 µg/mL
first compound 250 µg/mL | 0.955 | 0.967 | 0.93
first compound 500 µg/mL | 0.972 | 0.947 | 0.917
